Source: patent US20260355197A1, “METHOD FOR TREATING ATOPIC DERMATITIS” (BEIJING INNOCARE PHARMA TECH CO., LTD., priority 2023, published 2026)

Tests used:
[1] = test system: patients with moderate to severe atopic dermatitis; experiment: Phase 2 randomized, double-blind, placebo-controlled clinical study of ICP-332 in atopic dermatitis patients; format: in vivo, human; details: Week 4
[2] = test system: patients with moderate to severe atopic dermatitis; experiment: EASI-75 (difference from placebo) of ICP-332 versus other drugs for treating AD as monotherapy, not head-to-head; format: in vivo, human; details: ICP-332 4 weeks, other drugs 12 or 16 weeks, approved recommended doses, phase III published literature
From the text: The treatment period for ICP-332 was 4 weeks, while it was 12 or 16 weeks for other drugs with their approved recommended doses from phase III studies. The data of other drugs are based on available published literature.
This is a randomized, double-blind, placebo-controlled, phase 2 study to evaluate the safety, efficacy, pharmacokinetics, and pharmacodynamics of ICP-332 (Compound A) in patients with moderate to severe atopic dermatitis.
A total of 75 subjects with 25 subjects in each group are enrolled. • (1) ICP-332 80 mg, QD for 28 days (40 mg*2 tablets+Placebo*1 tablet) • (2) ICP-332 120 mg. QD for 28 days (40 mg*3 tablets) • (3) Placebo. QD for 28 days (Placebo*3 tablets)

## Cn1cc(Nc2ncc(Cl)c(N3C[C@@H]4CN(C(=O)CC#N)C[C@]4(C)C3)n2)cn1 [ICP-332]
[1]; 80 mg qd oral
  EASI 50, EASI 75, EASI 90, IGA 0/1: significant improvements
  percent change from baseline in EASI total score: significantly reduced the EASI total score (p<0.0001)
[1]; 120 mg qd oral
  EASI 50, EASI 75, EASI 90, IGA 0/1: significant improvements
  percent change from baseline in EASI total score: significantly reduced the EASI total score (p<0.0001)
[2]
  EASI-75 (difference from placebo) versus other drugs: best EASI-75 value over placebo
